Measurements published in patent US4643989A, “Inhibition of aldosterone secretion” (The Salk Institute for Biological Studies, priority 1984, dated 1987).
Bridges are numbered along the chain shown (N, C = ends).

Legend:
[1] = tested on: rat adrenoglomerulosa cells; assay: Basal secretion of aldosterone by rat glomerulosa cells (radioimmunoassay); format: cell-based; settings: for testing as set forth in Example II (inhibition of aldosterone secretion by rat glomerulosa cells): compared with rANF(8-33) results of Example II
Method: (§1) Rat adrenoglomerulosa cells are obtained by enzymatic digest of adrenals harvested from peripubertal male Sprague Dawley rats(Holtzman, 125 g) using previously described methods, and testing is carried out to determine the effect of synthetic rANF(8-33) on the basal secretion of aldosterone by rat glomerulosa cells. Rat glomerulosa cells are prepared by enzymatic digestion of 20 rat adrenals after ennucleation. The cells remaining on the capsule are digested for 30 minutes with a mixture of collagenase and DNase (4 mg/ml, 4 μg/ml). Dispersed cells are filtered through gauze and centrifuged at 800 rpm for 15 minutes. The pellet is resuspended in M199 buffer containing 0.1% bovine serum albumin(BSA), and the cells are centrifuged at 800 rpm for 15 minutes. The cell pellet is again resuspended in M199-0.1% BSA buffer and distributed in 900-μl aliquots to 12×75 plastic tubes. The samples are preincubated for 90 minutes in a 37° C. waterbath under an atmosphere of 5% CO2 -95% O2. Aliquots of the test samples are added in a 100 μl volume and incubated for 4 hours. Aldosterone and corticosterone are measured by radioimmunoassay using antisera purchased from Endocrine Sciences, Oxnard, Calif. and [^3 H]-labelled steroid from New England Nuclear, Boston, Mass. Results are the mean±SEM of 7 replicates. Statistical analysis is performed by analysis of variance, and all points are significant (p<0.01) from control. In concentrations as low as ≤10^-9 M, there is a significant (p<0.01) inhibition of aldosterone synthesis that is even more accentuated when the higher concentrations are tested (p<0.001).

rat glomerulosa cells [2] = assay: ACTH-stimulated aldosterone secretion by rat glomerulosa cells; format: cell-based; settings: equimolar amounts of ACTH and peptide; p<0.001 versus secretagogue alone
Method: as §1, with “Aliquots of the test samples are added in a 100 μl volume and incubated for 4 hours.” left out, “Results are the mean±SEM of 7 replicates. Statistical analysis is performed by analysis of variance, and all points are significant (p<0.01) from control. In concentrations as low as ≤10^-9 M, there is a significant (p<0.01) inhibition of aldosterone synthesis that is even more accentuated when the higher concentrations are tested (p<0.001).” left out
(§2) Similar inhibitory effects on aldosterone formation are obtained when its secretion by the glomerulosa cells in vitro is stimulated with either ACTH or AN-II. […] Aldosterone secretion is measured as above by radioimmunoassay. […]

rat glomerulosa cells [3] = assay: AN-II-stimulated aldosterone secretion by rat glomerulosa cells; format: cell-based; settings: equimolar amounts of AN-II and peptide; p<0.001 versus secretagogue alone
Method: as §1, with “Aliquots of the test samples are added in a 100 μl volume and incubated for 4 hours.” left out, “Results are the mean±SEM of 7 replicates. Statistical analysis is performed by analysis of variance, and all points are significant (p<0.01) from control. In concentrations as low as ≤10^-9 M, there is a significant (p<0.01) inhibition of aldosterone synthesis that is even more accentuated when the higher concentrations are tested (p<0.001).” left out
as §2

rat glomerulosa cells [4] = assay: Corticosterone formation by rat glomerulosa cells (radioimmunoassay); format: cell-based; settings: 10^-7 M peptide
Method: as §1
In other experiments, ANF(8-33) had no effect on pituitary ACTH secretion.

pituitary ACTH secretion = assay: Pituitary ACTH secretion; settings: other experiments

## H-Arg-Arg-Ser-Ser-Cys-Phe-Gly-Gly-Arg-Met-Asp-Arg-Ile-Gly-Ala-Gln-Ser-Gly- Leu-Gly-Cys-Asn-Ser-Phe-Tyr-OH (H-RRSSCFGGRMDRIGAQSGLGCNSFY-OH; disulfide 5-21; ends not checked) [hANF(8-33)]
[1]
  testing as set forth in Example II (inhibition of aldosterone secretion by rat glomerulosa cells): comparable results

## rANF(3-33)--NH2: C-terminal amide of rat ANF fragment 3-33
[1]
  testing as set forth in Example II (inhibition of aldosterone secretion by rat glomerulosa cells): comparable results

## rANF(5-33): rat ANF fragment 5-33
[1]
  testing as set forth in Example II (inhibition of aldosterone secretion by rat glomerulosa cells): comparable results

## rANF(8-30): rat ANF fragment 8-30
[1]
  testing as set forth in Example II (inhibition of aldosterone secretion by rat glomerulosa cells): comparable results

## rANF(8-32)--NH2: C-terminal amide of rat ANF fragment 8-32
[1]
  testing as set forth in Example II (inhibition of aldosterone secretion by rat glomerulosa cells): comparable results

## rANF(8-33): 26-residue fragment of rat atrial natriuretic factor with disulfide bond between the Cys residues
[1]
  stimulation of aldosterone: at no point was rANF(8-33) observed to stimulate aldosterone
[1]; basal, 4 hours incubation, p<0.01 versus control, more accentuated at higher concentrations (p<0.001)
  concentration giving significant inhibition of aldosterone synthesis (basal secretion): ≤ 10^-9 M
Rat glomerulosa cells [2]
  inhibition of ACTH-stimulated aldosterone secretion: significant inhibition of aldosterone secretion
Rat glomerulosa cells [3]
  inhibition of AN-II-stimulated aldosterone secretion: significant inhibition of aldosterone secretion
Rat glomerulosa cells [4]; decrease from 24.7±0.8 ng/ml without peptide
  basal corticosterone formation: 7.8 ± 0.3 ng/mL
Rat glomerulosa cells [4]; decrease from 37.2±1.4 ng/ml without peptide, p<0.001
  AN-II-stimulated corticosterone formation: 21.9 ± 0.9 ng/mL
Rat glomerulosa cells [4]; decrease from 43.4±0.7 ng/ml without peptide, p<0.001
  ACTH-stimulated corticosterone formation: 36.1 ± 0.7 ng/mL
Pituitary ACTH secretion
  effect on pituitary ACTH secretion: no effect
